US12258321B1 (University of Jeddah, priority 2024, dated 2025)

Legend:
MCF-7 cells = test: MTT cytotoxicity test on MCF-7 breast cancer cells; type: cell-based, human; conditions: for IC50: Homo sapiens, MCF7, 24 h, read-out: IC50, cytotoxic activity against MCF7 breast cancer cells
Description: The MCF-7 breast cancer cell lines were purchased from VACSERA Tissue Culture Unit (Giza, Egypt). MCF-7 cells were cultured in RPMI medium supplemented with 2 mM glutamine and 10% fetal bovine serum. Both cell cultures included […] streptomycin and 100 units/ml penicillin and were kept in a humidified atmosphere with 5% CO2 at 37° C.
All experiments were performed in triplicate. Data were given as mean±SD.

p-ERK1/2 = test: Western blot of p-ERK1/2 in EGF-stimulated MCF7 cells; type: cell-based, human; conditions: MCF7 cells stimulated with EGF for 30 minutes
Description: (§1) MCF-7 cells were exposed to compounds Comp-1 and Comp-6 for a period of 24 h, after which western blot analysis was conducted using a previously established protocol^21. To assess the release of cytochrome c, cytosolic and mitochondrial fractions were prepared in accordance with the methods outlined by Kawiak et al^21. Specific primary antibodies were utilized viz; anti-β-actin (1:1,000) (Cell Signaling, Danvers, MA, USA), anti-Bcl-2, anti-Bax, and anti-Mcl-1 (1:250) (Santa Cruz, Heidelberg, Germany), anti-ERK1/2, anti-MEK1/2, anti-p-ERK1/2, and anti-p-MEK1/2 (1:1,000) (Cell Signaling), and anti-cytochrome c (1:5,000) (Abcam, UK), and membranes were subjected to an overnight incubation with these antibodies at 4° C. This was followed by a 1 h incubation with HRP-conjugated secondary antibodies (1:2000) (Cell Signaling). The levels of protein were then determined using chemiluminescence (ChemiDoc; Bio-Rad, Waltham, MA, USA) with an HRP substrate (Thermo Scientific, MA, USA).
(§2) To investigate the impact of exemplary compounds on the cancer-promoting MAPK pathway in MCF7 breast cancer cells, we stimulated the cells with epidermal growth factor (EGF) for 30 minutes to induce p-ERK1/2 and p-MEK1/2 protein expression.

MCL-1 [1] = test: Western blot of MCL-1 expression in MCF7 cells; type: cell-based, human; conditions: 24 hours, vs untreated
Description: as §1
(§3) The cytotoxic mechanisms of the exemplary compounds Comp-1 and Comp-6 were investigated. Given that apoptosis is a common mechanism of action for many cancer therapies, we analyzed the levels of apoptotic markers BAX, BCL-2 and MCL-1 after treating MCF7 cells with Comp-1 and Comp-6 for 24 hours. Western blot analysis was performed on cell lysates and compared to untreated cell lysates.

BCL-2 [2] = target: T1, BCL-2 (Homo sapiens, UniProt P10415); test: BCL-2 inhibition by TR-FRET assay (cell-free); type: binding; conditions: read-out: IC50 against BCL-2
T1 construct: purchased BPS Bioscience
Description: (§4) The effectiveness of inhibiting the MCL-1 and BCL-2 proteins was evaluated using specific assay kits (BPS Bioscience, Sandiego, CA) and corresponding ligands for each protein. […] Measurements were taken of Tb-donor emission at 620 nm followed by dye-acceptor emission at 665 nm, and data analysis was performed using the TR-FRET ratio (665 nm emission/620 nm emission). The FRET value from the positive control was considered as full activity (100%) and the FRET value from the negative control was considered as zero percent activity. Then, % inhibitory activity of test compounds was calculated by the equation: % Activity=FRETS−FRETneg/FRETP−FRETneg×100%
(§5) Where FRETS, FRETneg, and FRETp are sample FRET, negative control FRET, and positive control FRET, respectively. The IC50 values of the test compounds were calculated by nonlinear regression analysis on GraphPad Prism 5 (GraphPad Inc., USA).

MCL-1 [3] = target: T2, MCL-1 (Homo sapiens, UniProt Q07820); test: MCL-1 inhibition by TR-FRET assay (cell-free); type: binding; conditions: read-out: IC50 against MCL-1
T2 construct: purchased BPS Bioscience
Description: as §4, §5

BCL-2 [4] = test: Western blot of BCL-2 expression in MCF7 cells; type: cell-based, human; conditions: 24 hours, vs untreated
Description: as §1, §3

p-MEK1/2 = test: Western blot of p-MEK1/2 in EGF-stimulated MCF7 cells; type: cell-based, human; conditions: MCF7 cells stimulated with EGF for 30 minutes
Description: as §1, §2

BAX = test: Western blot of BAX level in MCF7 cells; type: cell-based, human; conditions: 24 hours
Description: as §1, §3

T2 sequence (Q07820 whole entry): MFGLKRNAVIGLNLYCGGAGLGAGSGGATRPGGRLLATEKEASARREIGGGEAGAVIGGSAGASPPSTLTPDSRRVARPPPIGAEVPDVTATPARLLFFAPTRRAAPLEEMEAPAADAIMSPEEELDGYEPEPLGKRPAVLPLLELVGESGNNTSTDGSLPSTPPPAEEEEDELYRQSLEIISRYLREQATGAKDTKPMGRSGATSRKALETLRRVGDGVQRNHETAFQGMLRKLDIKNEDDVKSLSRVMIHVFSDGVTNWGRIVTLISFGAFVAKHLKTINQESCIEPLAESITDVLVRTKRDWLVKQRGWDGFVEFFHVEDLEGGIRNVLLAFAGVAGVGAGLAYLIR
T1 sequence (P10415 whole entry): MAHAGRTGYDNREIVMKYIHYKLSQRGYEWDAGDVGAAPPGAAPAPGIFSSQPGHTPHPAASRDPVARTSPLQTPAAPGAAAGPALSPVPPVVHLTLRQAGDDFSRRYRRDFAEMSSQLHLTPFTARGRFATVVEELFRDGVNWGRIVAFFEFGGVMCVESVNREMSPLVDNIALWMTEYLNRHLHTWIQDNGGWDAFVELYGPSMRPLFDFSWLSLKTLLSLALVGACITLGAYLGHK

O=C(Cc1ccc(-n2cc(COCc3ccccc3)nn2)cc1)NCc1ccccc1 [Comp-5, N-benzyl-2-(4-(4-((benzyloxy)methyl)-1H-1,2,3-triazol-1-yl)phenyl)acetamide]
IC50 (MCF-7 cells): 3200 nM

O=C(Cc1ccc(-n2cc(CO)nn2)cc1)NCc1ccccc1 [Comp-1, N-benzyl-2-(4-(4-(hydroxymethyl)-1H-1,2,3-triazol-1-yl)phenyl)acetamide]
reduction of p-ERK1/2 signal (p-ERK1/2): 46.1%
reduction of MCL-1 expression (MCL-1 [1]): 65.4%
IC50 (BCL-2 [2]): 507 nM
IC50 (MCF-7 cells): 1100 nM
potency relative to the reference drug Staurosporine (fold higher) (MCF-7 cells; MCF7 cytotoxicity IC50 ratio): approximately 5 fold
IC50 (MCL-1 [3]): 365 nM
reduction of BCL-2 expression (BCL-2 [4]): 65.3%
reduction of p-MEK1/2 signal (p-MEK1/2): 65.3%
BAX increase compared to untreated cells (Control) (BAX): more than five-fold

O=C(Cc1ccc(-n2cc(COc3cccc4ccccc34)nn2)cc1)NCc1ccccc1
reduction of p-ERK1/2 signal (p-ERK1/2): 50.7%
reduction of MCL-1 expression (MCL-1 [1]): 43.7%
IC50 (BCL-2 [2]): 1920 nM
IC50 (MCF-7 cells): 1880 nM
IC50 (MCL-1 [3]): 756 nM
reduction of BCL-2 expression (BCL-2 [4]): 55.9%
reduction of p-MEK1/2 signal (p-MEK1/2): 55.9%
BAX increase compared to untreated cells (Control) (BAX): nine-fold
